Assay results from patent US20040122081A1, “Pharmaceutical compositions and methods of using taxane derivatives” (priority 2002, published 2004).
≈ marks a conversion by molar mass, not a printed value. Where “and” joins values, the source holds several entries; their conditions need not be identical. Equal entries are not always repeated. Where two headings read alike, the source gives them in different places.

Experiments:
Type in all cases: physicochemical
[1] = Stability of solution in presence of POE castor oil at 50° C.; conditions: for Potency / Total Impurities: solution containing dehydrated alcohol and POE castor oil
Source text: As shown below, the stability of the solution containing POE castor oil was much lower than the injection solution without the co-solvent.

[2] = Solubility of compound in a co-solvent:water mixture; conditions: aqueous with cosolvent or surfactant or cyclodextrin, thermodynamic from solid, stirred over 16 hours
Procedure: Approximately 25 mg of drug substance was added to 2 mL aqueous solution of ethanol (33%, 50% and 75% v/v). An additional 10 mg of drug substance was added to the 75% sample as all drug appeared to dissolve. A similar study was performed by adding approximately 25 mg drug substance to 2 mL aqueous solution of tertiary butyl alcohol (33%, 50% and 66% v/v). Samples were stirred for over 16 hours, filtered through 0.45μ nylon syringe filters, diluted and analyzed by HPLC for drug concentration. The results shown in Table I indicate that among the conditions evaluated, 75% v/v dehydrated alcohol in water for injection provided the highest solubility. Based on the results of these studies, a formulation of 15 mg/mL drug substance in 75% v/v ethanol:water was selected for further studies.

[3] = Dilution of drug solution with aqueous diluents; conditions: 15 mg/mL drug solution (75% ethanol/10 mM tartrate buffer, apparent pH 5.4) diluted with 0.9% sodium chloride injection or 5% dextrose injection
[4] = Intrinsic aqueous solubility; conditions: water
Source text: Therefore, it was necessary to formulate the compound in such a way to get the desired solubility at a physiological pH and maintain stability prior to administration.

[5] = Equilibrium solubility in diluted drug product (mixed two-vial formulation); conditions: 7.5% ethanol, 4% POE castor oil in tartrate buffer; for solubility thermodynamic at 16 h: 24 °C
Procedure: A study was also undertaken to determine the equilibrium solubility of Compound Ia in the mixture obtained by mixing the contents of the two vial formulation. Ten milliliters of the mixed solution was transferred into four 10 cc Type I flint glass vials. To each of these aliquots, approximately 25 mg of drug substance was added. A different lot of drug substance was added to each vial. Vials were closed with West Teflon-faced stoppers, sealed with aluminum seals and stirred for 16 hours at room temperature, protected from light. Samples were filtered through 0.45 micron hydrophilic PVDF membranes and analyzed by HPLC for drug concentration. Solubility results are listed below in Table VI. […] Samples were prepared and stirred at 24±3° C. for about 5 hours and placed in a 5±3° C. storage chamber for about 17 hours. Upon removal from the storage chamber, samples were immediately filtered and analyzed by HPLC for drug concentration.

[6] = Effect of pH on drug substance stability in ethanol:buffer solutions; conditions: for % Compound Remaining / Total Impurity Index: 1 mg/mL in 75% v/v ethanol:0.01M tartrate, 18 days 50° C.
Procedure: The effect of pH on the drug substance stability was also studied. The buffer pH providing maximum stability was determined by comparing the stability of prototype formulations of the drug substance. […] Relative area percents of drug peaks were evaluated following 2 days storage at 85° C. […] Subsequent experiments evaluated stability (1 mg drug/mL) in 75% v/v ethanol:0.01M tartrate buffers. Three mL aliquots of samples were dispensed into 5 cc Type I glass vials and closed with West 4405/50 20 mm stoppers. Percent drug substance remaining, and impurities were evaluated following 18 days storage at 50° C. and compared to initial values.

[7] = Solubility in prototype formulation (75% v/v dehydrated alcohol, 10 mM tartrate buffer, apparent pH 5.4); conditions: aqueous with cosolvent or surfactant or cyclodextrin, thermodynamic from solid
Procedure: Solubility of four lots of drug substance was evaluated in the prototype formulation developed; 75% v/v dehydrated alcohol, 10 mM tartrate buffer resulting in an apparent pH of 5.4. 15 mg/mL of drug substance were used. 5 mL aliquots of the solution were dispensed into glass vials and an additional (˜50 mg) of drug substance was added. The vials were closed, sealed and stirred for 16 hours at room temperature. Samples were filtered and analyzed by HPLC for drug concentration.

[8] = Solubility in aqueous dehydrated alcohol / POE castor oil solutions; conditions: aqueous dehydrated alcohol/POE castor oil solution, 24 °C, aqueous with cosolvent or surfactant or cyclodextrin, thermodynamic from solid, stirred 16 hours, read-out: Drug Solubility
Procedure: However, this solution cannot be injected directly into patients as the non-aqueous components exceed 20%, thus potentially causing irritation at the injection site. […] It has been shown that the precipitation can be avoided by inclusion of a co-solvent such as polyoxyethylated (POE) castor oil in the formulation. Subsequently, solubility of the drug substance was determined in solutions containing various amounts of dehydrated alcohol and POE castor oil. Approximately 20 mg of drug was added to 3 mL aliquots of the solutions shown below in Table III. Samples were stirred for 16 hours, filtered trough 0.45 micron nylon syringe filters and analyzed by HPLC for drug concentration.

[9] = Buffer pH 2.6, apparent pH 3.88
[10] = Buffer pH 3.0, apparent pH 4.67
[11] = Buffer pH 3.5, apparent pH 5.15
[12] = Buffer pH 3.6, apparent pH 5.20
[13] = Buffer pH 3.8, apparent pH 5.39
[14] = Buffer pH 4.0, apparent pH 5.69
[15] = Buffer pH 4.0, apparent pH 5.81
[16] = Buffer pH 4.2, apparent pH 5.99
[17] = Buffer pH 4.4, apparent pH 6.24

Potency ([1]; 6 days @ 50° C.): 2000 mg/L
Total Impurities ([1]; 6 days @ 50° C.): 10.9
Potency ([1]; 16 days @ 50° C.): 1900 mg/L
Total Impurities ([1]; 16 days @ 50° C.): 16.5
Potency ([1]; Initial): 2200 mg/L
Total Impurities ([1]; Initial): 2.1
% potency remaining ([1]; injection solution (ethanol, pH 5.4 tartrate buffer) w/o POE castor oil, 28 days stored at 50° C.): 100%
% potency remaining ([1]; injection solution (ethanol, pH 5.4 tartrate buffer) with POE castor oil 4%, 16 days stored at 50° C.): 86%
solubility ([2]; ethanol:water mixture, Dehydrated Alcohol, USP 33% v/v in water): 0.03 mg/mL (≈ 32.8 µM)
solubility ([2]; ethanol:water mixture, Dehydrated Alcohol, USP 50% v/v in water): 1.64 mg/mL (≈ 1790 µM)
solubility ([2]; ethanol:water mixture, Dehydrated Alcohol, USP 75% v/v in water): > 17.5 mg/mL
solubility ([2]; tertiary butyl alcohol:water mixture, Tertiary Butyl Alcohol 33% v/v in water): 0.19 mg/mL (≈ 208 µM)
solubility ([2]; tertiary butyl alcohol:water mixture, Tertiary Butyl Alcohol 50% v/v in water): 3.13 mg/mL (≈ 3420 µM)
solubility ([2]; tertiary butyl alcohol:water mixture, Tertiary Butyl Alcohol 66% v/v in water): 13 mg/mL (≈ 14200 µM)
outcome of dilution with aqueous diluents [3]: drug precipitation
solubility [4]: < 0.0001 mg/mL
solubility thermodynamic ([5]; 5 °C, aqueous with cosolvent or surfactant or cyclodextrin, thermodynamic from solid, 5 ± 3° C.): 2.46 mg/mL (≈ 2690 µM)
solubility thermodynamic at 16 h ([5]; aqueous with cosolvent or surfactant or cyclodextrin, thermodynamic from solid, 24 ± 3° C., individual lots of drug substance, read-out: Equilibrium Solubility in Diluted Drug Product): 2.58 mg/mL (≈ 2820 µM)
solubility thermodynamic at 16 h ([5]; aqueous with cosolvent or surfactant or cyclodextrin, thermodynamic from solid, Average @ 24 ± 3° C., four lots, read-out: Equilibrium Solubility in Diluted Drug Product, Average): ~2.58 mg/mL (≈ 2820 µM)
Equilibrium Solubility in Diluted Drug Product ([5]; 24 ± 3° C., individual lots of drug substance): 2.57 mg/mL and 2.62 mg/mL and 2.56 mg/mL
Equilibrium Solubility in Diluted Drug Product, Average ([5]; Average @ 24 ± 3° C., four lots): 2.58 mg/mL
buffer pH at which the best stability was achieved ([6]; 0.2 mg drug/mL in 16.7% v/v ethanol:0.1M citrate buffers, 2 days storage at 85° C., HPLC relative area percent): 4.5
apparent pH of the most stable solution ([6]; 1 mg drug/mL in 75% v/v ethanol:0.01M tartrate buffers, 18 days at 50° C., corresponds to tartrate buffer pH 3.8): 5.4
% Compound Remaining [6, 9]: 94.4%
Total Impurity Index [6, 9]: 4.16 Area %
% Compound Remaining [6, 10]: 97.1%
Total Impurity Index [6, 10]: 2.51 Area %
% Compound Remaining [6, 11]: 97.1%
Total Impurity Index [6, 11]: 2.06 Area %
% Compound Remaining [6, 12]: 98.1%
Total Impurity Index [6, 12]: 1.36 Area %
% Compound Remaining [6, 13]: 101%
Total Impurity Index [6, 13]: 1.34 Area %
% Compound Remaining [6, 14]: 100%
Total Impurity Index [6, 14]: 1.62 Area %
% Compound Remaining [6, 15]: 98.1%
Total Impurity Index [6, 15]: 1.99 Area %
% Compound Remaining [6, 16]: 99%
Total Impurity Index [6, 16]: 1.67 Area %
% Compound Remaining [6, 17]: 100%
Total Impurity Index [6, 17]: 1.84 Area %
solubility thermodynamic ([7]; 5 °C, 5±3° C., read-out: equilibrium solubility): 23 mg/mL (≈ 25200 µM)
solubility at 16 h ([7]; 25 °C, room temperature, average of four lots): ~22 mg/mL (≈ 24100 µM)
solubility at 16 h ([8]; Aqueous vehicle: Dehydrated Alcohol 3.75% v/v, POE Castor Oil 2% v/v): 0.96 mg/mL (≈ 1050 µM)
solubility at 16 h ([8]; Aqueous vehicle: Dehydrated Alcohol 7.50% v/v, POE Castor Oil 4% v/v): > 1.5 mg/mL
solubility at 16 h ([8]; Aqueous vehicle: Dehydrated Alcohol 9.375% v/v, POE Castor Oil 5% v/v): 2.91 mg/mL (≈ 3180 µM)
SMILES: CSCO[C@H]1C[C@H]2OC[C@@]2(OC(C)=O)[C@H]2[C@H](OC(=O)c3ccccc3)[C@]3(O)C[C@H](OC(=O)[C@H](O)[C@@H](NC(=O)c4ccccc4)c4ccccc4)C(C)=C([C@@H](OC(C)=O)C(=O)[C@]12C)C3(C)C [Compound Ia, 7-O-methylthiomethylpaclitaxel]
